# Earlier results, collected in US20220265833A1, “ASPARTIC PROTEASE-TRIGGERED ANTIFUNGAL HYDROGELS” (priority 2017, published 2022).
# Square brackets hold non-standard residues; d marks the D form. Ends that are not written are not given here. Phe(4-NO2) = N[C@@H](Cc1ccc([N+](=O)[O-])cc1)C(=O)O
# Tested on: Saps
row,Substance,rank of peptide-Sap catalytic efficiency
1,LAF(p-NO2)FGAPK (LA[Phe(4-NO2)]FGAPK) [LFFK.AG],"In order of decreasing catalytic efficiencies, these peptides were: LFFK.AG, LFFK.A2, and LFFK"
2,LAF(p-NO2)FLAPK (LA[Phe(4-NO2)]FLAPK) [LFFK.A2],"In order of decreasing catalytic efficiencies, these peptides were: LFFK.AG, LFFK.A2, and LFFK"
3,LRF(p-NO2)↓FLAPK (LR[Phe(4-NO2)]FLAPK) [LFFK],"In order of decreasing catalytic efficiencies, these peptides were: LFFK.AG, LFFK.A2, and LFFK"
